Assay results reported in patent publication US20100215579A1, “PHEN-NAPHTHALENE AND PHEN-QUINOLINE DERIVATIVES AND THEIR USE FOR BINDING AND IMAGING AMYLOID PLAQUES” (The Trustees of the University of Pennsylvania, priority 2007, published 2010).

Assays:
[1] = Log P (octanol/Na2HPO4 buffer pH 7.4); format: physicochemical; details: octanol/0.1 M Na2HPO4 buffer (pH 7.4)
[2] = Biodistribution in ICR mice after an iv injection; format: in vivo
Text: Biodistribution in ICR Mice After an iv Injection of [^18F][4-(6-{2-[2-(2-Fluoro-ethoxy)-ethoxy]-ethoxy}-naphthalen-2-yl)-phenyl]-methyl-amine in 1% EtOH/0.1% BSA in Water
(% dose/organ, avg of 3 mice±SD)
(% dose/g, avg of 3 mice±SD)
Biodistribution in ICR Mice After an iv Injection of [^18F]19a in 3% EtOH/0.1% BSA in Water
Biodistribution in ICR Mice After an iv Injection of [^18F]34a in 5% EtOH/0.1% BSA in Water
Biodistribution in ICR Mice After an iv Injection of [^18F]32a in 1% EtOH/0.1% BSA in Water

[3] = Blood, 2 min after iv injection
[4] = Blood, 30 min after iv injection
[5] = Bone, 30 min after iv injection
[6] = Brain, 2 min after iv injection
[7] = Brain, 30 min after iv injection
[8] = Heart, 2 min after iv injection
[9] = Heart, 30 min after iv injection
[10] = Kidney, 2 min after iv injection
[11] = Kidney, 30 min after iv injection
[12] = Kidney, 1 hr after iv injection
[13] = Kidney, 2 hr after iv injection
[14] = Liver, 2 min after iv injection
[15] = Liver, 30 min after iv injection
[16] = Lung, 30 min after iv injection
[17] = Muscle, 2 min after iv injection
[18] = Muscle, 30 min after iv injection
[19] = Muscle, 1 hr after iv injection
[20] = Muscle, 2 hr after iv injection
[21] = Skin, 30 min after iv injection
[22] = Spleen, 2 min after iv injection
[23] = Spleen, 30 min after iv injection
[24] = Spleen, 1 hr after iv injection
[25] = Spleen, 2 hr after iv injection

Log P [1]: 2.77 | % dose/g [2, 3]: 1.80 ± 0.28 % dose/g | % dose/organ [2, 3]: 3.32 ± 0.46 % dose/organ | % dose/g [2, 4]: 0.99 ± 0.12 % dose/g | % dose/organ [2, 4]: 1.80 ± 0.14 % dose/organ | % dose/g ([2]; Blood, 1 hr after iv injection): 1.37 ± 0.14 % dose/g | % dose/organ ([2]; Blood, 1 hr after iv injection): 2.40 ± 0.19 % dose/organ | % dose/g ([2]; Blood, 2 hr after iv injection): 1.13 ± 0.15 % dose/g | % dose/organ ([2]; Blood, 2 hr after iv injection): 2.00 ± 0.25 % dose/organ | % dose/g ([2]; Bone, 2 min after iv injection): 1.25 ± 0.06 % dose/g | % dose/organ ([2]; Bone, 2 min after iv injection): 4.63 ± 0.32 % dose/organ | % dose/g [2, 5]: 0.81 ± 0.11 % dose/g | % dose/organ [2, 5]: 2.92 ± 0.27 % dose/organ | % dose/g ([2]; Bone, 1 hr after iv injection): 1.11 ± 0.14 % dose/g | % dose/organ ([2]; Bone, 1 hr after iv injection): 3.91 ± 0.37 % dose/organ | % dose/g ([2]; Bone, 2 hr after iv injection): 1.47 ± 0.27 % dose/g | % dose/organ ([2]; Bone, 2 hr after iv injection): 5.19 ± 0.80 % dose/organ | % dose/g [2, 6]: 7.76 ± 1.25 % dose/g | % dose/organ [2, 6]: 3.56 ± 0.47 % dose/organ | % dose/g [2, 7]: 2.33 ± 0.68 % dose/g | % dose/organ [2, 7]: 1.07 ± 0.24 % dose/organ | % dose/g ([2]; Brain, 1 hr after iv injection): 1.92 ± 0.31 % dose/g | % dose/organ ([2]; Brain, 1 hr after iv injection): 0.86 ± 0.14 % dose/organ | % dose/g ([2]; Brain, 2 hr after iv injection): 1.45 ± 0.11 % dose/g | % dose/organ ([2]; Brain, 2 hr after iv injection): 0.66 ± 0.03 % dose/organ | % dose/g [2, 8]: 10.1 ± 1.14 % dose/g | % dose/organ [2, 8]: 1.36 ± 0.20 % dose/organ | % dose/g [2, 9]: 1.99 ± 0.43 % dose/g | % dose/organ [2, 9]: 0.26 ± 0.06 % dose/organ | % dose/g ([2]; Heart, 1 hr after iv injection): 2.07 ± 0.23 % dose/g | % dose/organ ([2]; Heart, 1 hr after iv injection): 0.25 ± 0.03 % dose/organ | % dose/g ([2]; Heart, 2 hr after iv injection): 1.28 ± 0.09 % dose/g | % dose/organ ([2]; Heart, 2 hr after iv injection): 0.15 ± 0.01 % dose/organ | % dose/g [2, 10]: 13.0 ± 3.04 % dose/g | % dose/organ [2, 10]: 5.25 ± 0.89 % dose/organ | % dose/g [2, 11]: 3.61 ± 0.65 % dose/g | % dose/organ [2, 11]: 1.55 ± 0.33 % dose/organ | % dose/g [2, 12]: 3.38 ± 0.38 % dose/g | % dose/organ [2, 12]: 1.24 ± 0.19 % dose/organ | % dose/g [2, 13]: 1.78 ± 0.06 % dose/g | % dose/organ [2, 13]: 0.73 ± 0.02 % dose/organ | % dose/g [2, 14]: 16.3 ± 4.96 % dose/g | % dose/organ [2, 14]: 19.4 ± 3.67 % dose/organ | % dose/g [2, 15]: 8.02 ± 0.65 % dose/g | % dose/organ [2, 15]: 11.2 ± 1.65 % dose/organ | % dose/g ([2]; Liver, 1 hr after iv injection): 8.10 ± 1.59 % dose/g | % dose/organ ([2]; Liver, 1 hr after iv injection): 9.75 ± 1.79 % dose/organ | % dose/g ([2]; Liver, 2 hr after iv injection): 5.22 ± 0.49 % dose/g | % dose/organ ([2]; Liver, 2 hr after iv injection): 6.34 ± 0.87 % dose/organ | % dose/g ([2]; Lung, 2 min after iv injection): 7.63 ± 0.46 % dose/g | % dose/organ ([2]; Lung, 2 min after iv injection): 1.54 ± 0.16 % dose/organ | % dose/g [2, 16]: 2.31 ± 0.42 % dose/g | % dose/organ [2, 16]: 0.42 ± 0.07 % dose/organ | % dose/g ([2]; Lung, 1 hr after iv injection): 2.21 ± 0.19 % dose/g | % dose/organ ([2]; Lung, 1 hr after iv injection): 0.40 ± 0.01 % dose/organ | % dose/g ([2]; Lung, 2 hr after iv injection): 1.43 ± 0.03 % dose/g | % dose/organ ([2]; Lung, 2 hr after iv injection): 0.27 ± 0.00 % dose/organ | % dose/g [2, 17]: 0.83 ± 0.19 % dose/g | % dose/organ [2, 17]: 8.87 ± 2.47 % dose/organ | % dose/g [2, 18]: 1.20 ± 0.28 % dose/g | % dose/organ [2, 18]: 12.3 ± 2.18 % dose/organ | % dose/g [2, 19]: 1.09 ± 0.09 % dose/g | % dose/organ [2, 19]: 11.0 ± 0.64 % dose/organ | % dose/g [2, 20]: 0.81 ± 0.14 % dose/g | % dose/organ [2, 20]: 8.16 ± 1.14 % dose/organ | % dose/g ([2]; Skin, 2 min after iv injection): 0.42 ± 0.06 % dose/g | % dose/organ ([2]; Skin, 2 min after iv injection): 1.68 ± 0.22 % dose/organ | % dose/g [2, 21]: 0.98 ± 0.33 % dose/g | % dose/organ [2, 21]: 3.86 ± 1.41 % dose/organ | % dose/g ([2]; Skin, 1 hr after iv injection): 0.94 ± 0.06 % dose/g | % dose/organ ([2]; Skin, 1 hr after iv injection): 3.53 ± 0.16 % dose/organ | % dose/g ([2]; Skin, 2 hr after iv injection): 0.82 ± 0.15 % dose/g | % dose/organ ([2]; Skin, 2 hr after iv injection): 3.11 ± 0.48 % dose/organ | % dose/g [2, 22]: 4.95 ± 0.78 % dose/g | % dose/organ [2, 22]: 0.51 ± 0.09 % dose/organ | % dose/g [2, 23]: 1.56 ± 0.28 % dose/g | % dose/organ [2, 23]: 0.15 ± 0.03 % dose/organ | % dose/g [2, 24]: 1.64 ± 0.13 % dose/g | % dose/organ [2, 24]: 0.15 ± 0.04 % dose/organ | % dose/g [2, 25]: 1.16 ± 0.07 % dose/g | % dose/organ [2, 25]: 0.09 ± 0.01 % dose/organ
Compound: CN(C)c1ccc(-c2ccc3nc(OCCOCCOCC[18F])ccc3c2)cc1 [[^18F]32a]
